Assay results taken from PubChem BioAssay AID1845199 (Molecular Pharmacology Branch, DTP, NCI, 2023).
Several values for one entry are separate records, joined by “and”; a condition that tells them apart may be missing. Identical values can stand only once.

Tested on: 556581-035-R-J1 tumor spheroid viability, % test/control
Assay: Anticancer human tumor 556581-035-R-J1 patient-derived ovarian carcinoma cell line growth inhibition
Settings: spheroids with HUVEC and MSC; for viability, T/C: stronger effect = lower value; for IC50: curve of compound
In short: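 Single agents and combinations were tested on spheroids built from tumor cells plus HUVEC and hMSC, at half-log dilutions starting at or near clinical Cmax, else 10 microM; final DMSO 0.25% (v/v).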
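Note: spheroids exposed to compounds for 7 days before viability read.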

SMILES | viability, T/C (compound 0.00949 µM) | viability, T/C (compound 0.03 µM) | viability, T/C (compound 0.0949 µM) | viability, T/C (compound 0.3 µM) | viability, T/C (compound 0.949 µM) | viability, T/C (compound 3 µM) | IC50
Cn1ncnc1[C@H]1c2n[nH]c(=O)c3cc(F)cc(c23)N[C@@H]1c1ccc(F)cc1 | 110% and 95.9% and 100% | 107% and 97.1% and 105% | 102% and 89.2% and 95.8% | 97.6% and 80.2% and 83.6% | 77.9% and 69.9% and 76% | 60.8% and 52.1% and 56.5% | > 3 µM
CNCc1ccc(-c2cc(-c3nc(-c4ccc(S(=O)(=O)C(C)C)cc4)cnc3N)on2)cc1 | 107% and 97.6% and 104% | 105% and 95.6% and 111% | 103% and 115% and 108% | 106% and 112% and 108% | 66.6% and 80.3% and 75.4% | 20.2% and 19.4% and 27.6% | 1.43 µM and 1.68 µM and 1.75 µM
